According to patent publication US20230022235A1, “DUAL ANDROGEN RECEPTOR/AKR1C3 INHIBITORS” (The Regents of the University of California, priority 2019, published 2023):
Entries after “also recorded” stand apart in the source; their conditions may differ.

Assays:
[1] = tested on: LuCaP35CR tumors; test: LuCaP35CR PDX model in castrated SCID mice; type: in vivo
Description: The LuCaP35CR PDX model was also employed to investigate the effects of compound 1 in vivo. For this model, SCID mice were castrated and implanted with LuCaP35CR tissues. Once tumors were palpable, mice were divided into two groups: control or 20 mg/kg compound 1 administered I.P. 5 days a week for 3 weeks. Tumor volumes were measured twice weekly and mouse weights were monitored. At the end of treatment, tumors and serum were collected for assessment.

[2] = molecular target: T1, AKR1C3 (Homo sapiens, UniProt P42330); test: Aldo-Keto Reductase (AKR) Activity Assay Kit (Colorimetric) in LNCaP-AKR1C3 cells; type: cell-based; set-up: expressed in transfected cells; host or cells: LNCaP-AKR1C3; details: 48 hrs
T1 sequence (P42330 1-323): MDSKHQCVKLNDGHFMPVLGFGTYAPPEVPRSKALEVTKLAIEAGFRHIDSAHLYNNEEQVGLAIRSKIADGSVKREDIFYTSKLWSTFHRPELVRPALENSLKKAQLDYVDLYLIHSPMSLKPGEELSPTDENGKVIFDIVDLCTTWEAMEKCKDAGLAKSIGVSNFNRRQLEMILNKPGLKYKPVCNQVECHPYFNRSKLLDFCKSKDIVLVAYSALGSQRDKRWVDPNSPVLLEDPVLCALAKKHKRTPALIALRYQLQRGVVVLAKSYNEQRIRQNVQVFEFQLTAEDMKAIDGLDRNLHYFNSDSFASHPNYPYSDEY
Description: To examine whether compound 1 and compound 2 are useful in inhibiting AKR1C3 activity, LNCaP-AKR1C3 were treated with either compound 1 or compound 2 for 48 hrs. AKR1C3 enzymatic activity was determined by Aldo-Keto Reductase (AKR) Activity Assay Kit (Colorimetric), the results of which are shown in FIG. 2. Similarly, the inhibition of AKR1C3 activity was examined with varying doses of compound 1. LNCaP-AKR1C3 cells were treated with increasing doses of compound 1 for 48 hrs.

[3] = molecular target: T2, AR (Homo sapiens, UniProt P10275, T878A); test: DHT-stimulated AR nuclear translocation in LNCaP cells (immunofluorescent staining); type: cell-based; details: charcoal stripped FBS
T2 construct: endogenous in cells; host or cells: LNCaP
T2 sequence (P10275 1-920 T878A): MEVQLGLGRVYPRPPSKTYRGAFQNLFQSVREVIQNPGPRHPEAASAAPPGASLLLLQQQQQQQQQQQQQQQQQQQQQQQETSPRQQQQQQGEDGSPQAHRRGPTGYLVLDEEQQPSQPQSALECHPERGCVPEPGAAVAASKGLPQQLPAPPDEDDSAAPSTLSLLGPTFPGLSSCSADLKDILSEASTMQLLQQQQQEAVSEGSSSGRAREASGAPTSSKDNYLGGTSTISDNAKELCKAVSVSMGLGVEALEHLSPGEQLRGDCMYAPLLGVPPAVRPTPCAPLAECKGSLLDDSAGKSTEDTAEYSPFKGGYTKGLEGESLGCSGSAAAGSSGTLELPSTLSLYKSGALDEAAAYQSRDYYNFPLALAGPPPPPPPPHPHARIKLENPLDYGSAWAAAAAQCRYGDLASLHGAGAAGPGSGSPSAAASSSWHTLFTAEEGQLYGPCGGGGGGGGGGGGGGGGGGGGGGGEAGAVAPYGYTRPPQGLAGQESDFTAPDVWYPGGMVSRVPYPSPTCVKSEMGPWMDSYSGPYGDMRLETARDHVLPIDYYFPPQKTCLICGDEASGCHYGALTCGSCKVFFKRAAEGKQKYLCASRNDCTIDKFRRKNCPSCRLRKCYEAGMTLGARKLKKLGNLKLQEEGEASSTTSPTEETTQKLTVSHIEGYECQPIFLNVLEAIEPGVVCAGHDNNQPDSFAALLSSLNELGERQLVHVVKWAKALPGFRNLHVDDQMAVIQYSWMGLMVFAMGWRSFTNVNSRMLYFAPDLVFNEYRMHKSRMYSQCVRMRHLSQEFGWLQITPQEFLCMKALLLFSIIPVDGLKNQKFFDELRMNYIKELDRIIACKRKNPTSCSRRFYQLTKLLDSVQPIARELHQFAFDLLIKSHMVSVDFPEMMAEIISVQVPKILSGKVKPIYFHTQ
Description: LNCaP cells cultured in charcoal stripped FBS conditions were treated with DHT and the compounds as indicated. AR expression were visualized by immunofluorescent staining.
(§1) Next, the effects of the new AR/AKR1C3 inhibitors on AR signaling were studied. […] To further confirm the inhibitory role of the compounds in AR signaling, enzalutamide resistant C4-2B MDVR cells (which have enhanced expression of AR, AR variants, and AKR1C3) were treated with 5 μM compound 1, 5 μM compound 5, or a DMSO control. Total RNA was isolated assessed using RNAseq.

[4] = tested on: C4-2B MDVR cells; test: Cell number of enzalutamide-resistant C4-2B MDVR cells; type: cell-based; details: 48 hrs
Description: C4-2B MDVR cells were treated with increasing doses of compound 1 for 48 hrs.
To evaluate whether compound 1 is an effective inhibitor of anti-androgen resistant cell growth, a series of resistant cells were treated with their respective anti-androgens for 48 hrs. Enzalutamide resistant MDVR cells, abiraterone resistant AbiR cells, apalutamide resistant ApaIR cells, and darolutamide resistant DaroR cells were treated with their respective anti-androgens: enza (20 μM), abi (20 μM), apal (20 μM), darolutamide (20 μM), or compound 1 (5 μM).

[5] = tested on: MCF-7 breast cancer cells; test: Cell number of MCF-7 breast cancer cells; type: cell-based; details: 48 hrs
[6] = tested on: C4-2B MDVR cells; test: RNAseq of genes associated with cancer cell proliferation and survival in C4-2B MDVR cells; type: cell-based; details: 5 μM, vs DMSO control
Description: In addition, the effect of the compounds on the expression of genes involved in cancer was studied. Enzalutamide resistant C4-2B MDVR cells were treated with 5 μM of compound 1, 2, 5, or 8, or DMSO control.

[7] = tested on: VCaP tumors; test: VCaP tumor model in intact SCID mice; type: in vivo; details: 20 mg/kg I.P. 5 days a week for 3 weeks
Description: Next the effects of compound 1 in vivo were studied in two separate models. First, intact SCID mice were injected with resistant prostate cancer VCaP cells suspended in matrigel. Once tumors were palpable, mice were divided into two groups: control or 20 mg/kg compound 1 administered I.P. 5 days a week for 3 weeks. Tumor volumes were measured twice weekly and mouse weights were monitored. At the end of treatment, tumors and serum were collected for assessment.

[8] = molecular target: T1, AKR1C3; test: Ex vivo tumor based AKR1C3 enzyme assay (androstenedione conversion to testosterone); type: cell-based; details: ex vivo tumors, androstenedione 300 nmol/L, testosterone in supernatants
Description: AKR1C3 plays a crucial role in the synthesis of testosterone, by catalyzing the conversion of the adrenal androgens dehydroepiandrosterone (DHEA) and androstenedione (AD) into testosterone. To determine the effects of compound 1 on inhibition of AKR1C3 enzymatic activity an ex vivo tumor based AKR1C3 enzyme assay was conducted. LUCaP35CX tumors, which express high levels of AKR1C3, were digested with 0.1% protease and cultured in medium supplemented with 10% heat-inactivated charcoal-dextran-stripped FBS. After overnight incubation, androstenedione (300 nmol/L) was added with or without compound 1. The supernatants were collected to measure testosterone.

[9] = tested on: AR; test: RNAseq of AR signaling genes in C4-2B MDVR cells; type: cell-based; details: 5 μM, vs DMSO control
Description: as §1

[10] = tested on: AR-V7; test: RNAseq of AR-V7 signature genes in C4-2B MDVR cells; type: cell-based; details: 5 μM, vs DMSO control
Description: as §1

[11] = LuCaP35CR PDX, castrated SCID mice, 20 mg/kg I.P. 5 days a week for 3 weeks

Row | SMILES | intratumoral testosterone levels [1, 11] | mouse body weight [1, 11] | serum PSA [1, 11] | tumor volume / tumor growth ([1]; LuCaP35CR PDX, castrated SCID mice, 20 mg/kg I.P. 5 days a week for 3 weeks, 20 mg/kg) | tolerability ([1]; conclusion from VCaP and LuCaP35CR mouse models, 20 mg/kg I.P.) | AKR1C3 enzymatic activity [2] | AKR1C3 enzymatic activity, increasing doses ([2]; increasing doses) | AR nuclear translocation / DHT-stimulated AR nuclear expression [3] | total cell number (cell growth) [4] | total cell number (cell growth), increasing doses ([4]; increasing doses) | total cell number (cell growth), increasing doses [5] | expression of genes associated with cancer cell proliferation and survival [6] | serum PSA ([7]; end of treatment) | mouse body weight ([7]; vs control) | tumor volume / tumor growth ([7]; vs control, 20 mg/kg) | androstenedione conversion to testosterone [8] | expression of genes associated with AR signaling (AR activity signature genes) [9] | expression of AR-V7 signature genes [10]
1 | O=C(Nc1cc(C(F)(F)F)cc(C(F)(F)F)c1)c1cc(Cc2ccccc2)ccc1O [compound 1, 5-benzyl-N-(3,5-bis(trifluoromethyl)phenyl)-2-hydroxybenzamide] | significantly reduced intratumoral testosterone levels | no effect on mouse body weight | reduced | significantly decreased tumor volumes; also recorded: inhibits LuCaP35CR tumor growth | well-tolerated | inhibit AKR1C3 activity | inhibited in dose-dependent fashion | capable of inhibiting DHT-stimulated AR nuclear expression; also recorded: inhibit AR nuclear translocation | inhibit cell growth | inhibited in dose-dependent fashion | inhibited in dose dependent fashion | greatly reduced expression of genes associated with cancer cell proliferation and survival; also recorded: inhibit genes associated with cancer cell proliferation and survival | significantly decreased | no effect on mouse body weight | significantly decreased tumor volume; also recorded: inhibits VCaP tumor growth | dose-dependent inhibition; also recorded: inhibits the conversion from androstenedione to testosterone | greatly reduced expression of genes associated with AR signaling; also recorded: inhibit AR activity signature genes | reduced expression of AR-V7 signature genes; also recorded: inhibit AR-V7 activity signature genes
2 | COc1ccc(Cc2ccc(O)c(C(=O)Nc3cc(C(F)(F)F)cc(C(F)(F)F)c3)c2)cc1 [compound 5, N-(3,5-bis(trifluoromethyl)phenyl)-2-hydroxy-5-(4-methoxybenzyl)benzamide] |  |  |  |  |  |  |  | capable of inhibiting DHT-stimulated AR nuclear expression; also recorded: inhibit AR nuclear translocation |  |  |  | greatly reduced expression of genes associated with cancer cell proliferation and survival; also recorded: inhibit genes associated with cancer cell proliferation and survival |  |  |  |  | greatly reduced expression of genes associated with AR signaling; also recorded: inhibit AR activity signature genes | reduced expression of AR-V7 signature genes; also recorded: inhibit AR-V7 activity signature genes
3 | COc1ccc(C(=O)c2ccc(O)c(C(=O)Nc3cc(C(F)(F)F)cc(C(F)(F)F)c3)c2)cc1 [compound 8, N-(3,5-Bis(trifluoromethyl)phenyl)-2-hydroxy-5-(4-methoxybenzoyl)benzamide] |  |  |  |  |  |  |  |  |  |  |  | greatly reduced expression of genes associated with cancer cell proliferation and survival; also recorded: inhibit genes associated with cancer cell proliferation and survival |  |  |  |  |  | 
